Test results as given in patent publication US10766929B2, “De novo designed hemagglutinin binding proteins” (UNIVERSITY OF WASHINGTON, priority 2017, dated 2020).
≈ marks a conversion by molar mass, not a printed value. Positions of bridges follow the written chain, without caps; N, C: chain ends. Residues, ends and D or L forms follow the SMILES beside them. No end group written: not given here.

How the values were obtained:
biotinylated HA proteins = type: physicochemical, influenza
PR8 influenza virus = type: cell-based, influenza virus (Madin-Darby Canine Kidney Epithelial Cells)
CA09 influenza virus = type: cell-based, influenza virus (Madin-Darby Canine Kidney Epithelial Cells)
[1] = system: A/California/04/09 (H1N1) (CA09); set-up: species or system BALB/c mice; settings: mouse, in vivo
[2] = system: H1N1 (CA09) influenza virus; set-up: species or system Ferrets; settings: in vivo
[3] = system: flu virus strains Ca0409 and Ft. Monmout; settings: both strains

Row | Compound | loss of binding activity after high temperature exposure (biotinylated HA proteins) | EC50 fold lower than FI6v3 and HB36.6 on a mass basis (PR8 influenza virus) | EC50 versus FI6v3 and HB36.6 on a molar basis (PR8 influenza virus) | EC50 fold lower than FI6v3 and HB36.6 on a mass basis (CA09 influenza virus) | EC50 versus FI6v3 and HB36.6 on a molar basis (CA09 influenza virus) | dose fold lower on a mass basis than the FI6v3 dose required for equivalent protection [1] | survival [1] | weight loss [1] | protection ([1]; iv) | changes in temperature [2] | clinical signs of disease [2] | weight loss [2] | EC50 for inhibition of viral replication in vitro (Virus Ft. Monmouth) | IC50 against flu virus strains Ca0409 and Ft. Monmout [3] | EC50 for inhibition of viral replication in vitro (Virus Ca0409)
1 | CC[C@H](C)[C@@H]1NC(=O)[C@H](CCC(=O)O)NC(=O)[C@H](C)NC(=O)[C@H](C)NC(=O)[C@H]([C@@H](C)O)NC(=O)[C@H](CCC(N)=O)NC(=O)[C@@H]2CSSC[C@H](NC(=O)[C@H](CC(N)=O)NC(=O)CNC(=O)[C@H](CC(N)=O)NC(=O)[C@H](CC(=O)O)NC(=O)[C@H](C(C)C)NC(=O)[C@H](CCSC)NC(=O)[C@H]([C@@H](C)CC)NC(=O)[C@H](CCCCN)NC(=O)[C@H](C(C)C)NC(=O)[C@H]([C@@H](C)O)NC(=O)[C@H](Cc3ccc(O)cc3)NC(=O)CNC(=O)[C@H](Cc3ccccc3)NC(=O)[C@H](C)NC(=O)[C@H](CCCNC(=N)N)NC(=O)[C@H](Cc3c[nH]c4ccccc34)NC1=O)C(=O)N[C@@H](CCCNC(=N)N)C(=O)N[C@@H](CC(C)C)C(=O)N[C@@H](Cc1c[nH]cn1)C(=O)N[C@@H](C(C)C)C(=O)N[C@H](C(=O)O)CSSC[C@H](N)C(=O)N[C@@H]([C@@H](C)CC)C(=O)N[C@@H](CCC(=O)O)C(=O)N[C@@H](CCC(N)=O)C(=O)N[C@@H](CO)C(=O)N[C@@H](Cc1ccccc1)C(=O)N[C@@H]([C@@H](C)O)C(=O)N[C@@H]([C@@H](C)O)C(=O)N[C@@H](CC(C)C)C(=O)N[C@@H](Cc1ccccc1)C(=O)N[C@@H](C)C(=O)N2 [HB1.6928.2.3] (H-CIEQSFTTLFACQTAAEIWRAFGYTVKIMVDNGNCRLHVC-OH; disulfide 1-40, 12-35; N-terminus and C-terminus assumed) | no detectable loss of binding | more than 100 fold | comparable | more than 100 fold | comparable | 100 fold | 100% | < 10% | little protection | no significant changes in temperature | minimal clinical signs of disease | no significant weight loss | 0.02 ng/mL | ~0.02 ng/mL (≈ 0.00441 nM) | 
2 | CC[C@H](C)[C@@H]1NC(=O)[C@H](CCC(=O)O)NC(=O)[C@H](C)NC(=O)[C@H](C)NC(=O)[C@H]([C@@H](C)O)NC(=O)[C@H](CCC(N)=O)NC(=O)[C@H](C)NC(=O)[C@H](C)NC(=O)[C@H](Cc2ccccc2)NC(=O)[C@H](CC(C)C)NC(=O)[C@H]([C@@H](C)O)NC(=O)[C@H]([C@@H](C)O)NC(=O)[C@H](Cc2ccccc2)NC(=O)[C@H](CO)NC(=O)[C@H](CCC(N)=O)NC(=O)[C@H](CCC(=O)O)NC(=O)[C@H]([C@@H](C)CC)NC(=O)[C@@H](N)CSSC[C@@H](C(=O)O)NC(=O)[C@H](C(C)C)NC(=O)[C@H](Cc2c[nH]cn2)NC(=O)[C@H](CC(C)C)NC(=O)[C@H](CCCNC(=N)N)NC(=O)[C@H](Cc2c[nH]c3ccccc23)NC(=O)[C@H](CC(N)=O)NC(=O)CNC(=O)[C@H](CC(N)=O)NC(=O)[C@H](CC(=O)O)NC(=O)[C@H](CCC(N)=O)NC(=O)[C@H](CCSC)NC(=O)[C@H]([C@@H](C)CC)NC(=O)[C@H](CCCCN)NC(=O)[C@H](C(C)C)NC(=O)[C@H]([C@@H](C)O)NC(=O)[C@H](Cc2ccc(O)cc2)NC(=O)CNC(=O)[C@H](Cc2ccccc2)NC(=O)[C@H](C)NC(=O)[C@H](CCCNC(=N)N)NC(=O)[C@H](Cc2c[nH]c3ccccc23)NC1=O [AQW CS15989] (H-CIEQSFTTLFAAQTAAEIWRAFGYTVKIMQDNGNWRLHVC-OH; disulfide 1-40; N-terminus and C-terminus assumed) |  |  |  |  |  |  |  |  |  |  |  |  | 10 ng/mL |  | 0.01 µg/mL
3 | TIEQSFTTLFAAQTAAEIWRAFGYTVKIMQDNGNWRLHVT [TAWQT CS15990] |  |  |  |  |  |  |  |  |  |  |  |  | 2 ng/mL |  | 0.02 µg/mL
